{"source": "patent US9346839B2", "key": {"SK-N-SH cells": {"tested_on": "SK-N-SH cells", "assay": "Mitochondrial cytochrome c oxidase (CcO) activity in Aβ-treated cells", "assay_type": "cell-based", "conditions": "for CcO activity, inhibitor alone: 1 μM inhibitor alone, without Aβ; for Aβ-mediated decrease of CcO activity: 5 μM oligomer Aβ1-42 plus 1 μM compound, 48 hours", "procedure": "SK-NSH cells were treated with 5 μM oligomer Aβ plus 1 μM of ABAD inhibitor; inhibitor alone; vehicle (VEH) without inhibitor; or Aβ alone. Forty-eight hour later, CcO activity (μmol protein mg^−1 min^−1) was measured in cell lysates.\nMethod of Measurement of Mitochondrial Cytochrome c Oxidase (CcO) Activity. The CcO activity was measured according to known methods (Du, et al. (2008) Nat. Med. 14:1097-105) with a cytochrome c oxidase kit (Sigma). In brief, SK-N-SH cells were incubated with ABAD inhibitor and oligomer Aβ for 48 hours. After washing the cells twice with PBS, the cells were collected and concentration was determined by the Bradford method. A suitable volume of cells and enzyme solution was added to 475 μl assay buffer. The reaction was triggered by the addition of 25 μl freshly prepared ferrocytochrome C substrate solution into the cuvette. Changes in OD550 nm were recorded immediately with an Amersham Biosciences ULTROSPECT 3100 pro spectrophotometer.\nCytochrome C Oxidase (CcO) Activity. To assess the effect of ABAD inhibitor on […] mitochondrial respiratory function, CcO activity was determined."}, "[1]": {"assay": "Pharmacokinetic study, plasma and brain levels by LC-MS/MS", "assay_type": "in vivo", "conditions": "both sexes, C57BL6, mouse, intravenous 10 mg/kg, mice; for AUC(0-t): read-out: AUC0-48", "procedure": "Liquid Chromatography (LC) Method for Mass Spectrometry (MS) Detection. Chromatographic separation was on an ACE C18 column (Mac Mod Analytical, 3 μm, Ultra-Inert HPLC Column, 50×2.1 mm) protected by a matched ACE guard cartridge. Separation solvents were A: H2O (99%), methanol (1%), and formic acid (0.1%) and B: H2O (1%), methanol (99%), and formic acid (0.1%) delivered at a flow rate of 400 μl/minute. The hydrophobic character of the analytes allows a large injection (50 μl) to chromatofocus on a column at 5% B. After 0.2 minutes separation was with a linear gradient of 11% B/minute for 4 minutes. Column wash was to 80% B for 2 minutes and re-equilibration at 5% B for 1.5 minutes for a total run-time of 8 minutes. The first 2 minutes of chromatographic effluent was diverted to waste.\nMass Spectrometry Parameters. The mass spectrometer was run in positive ion mode using the electrospray ionization (ESI) source. The source block was 100° C. and desolvation gas temperature 300° C. Argon collision gas pressure on a line to the cell was 1E-3 mbar. Quadrupoles 1 and 3 were set to 0.9 amu FWHH and collision energy and cone voltage settings were optimized for each compound. The data were processed using MassLynx 4.1/QuanLynx and Graphpad Prism 5. Fragmentation patterns of compounds 4, 8, and 15, methyl (Z)-3-(((6-methoxybenzo[d]thiazol-2-yl)imino)methyl)benzoate, 4-(1-((6-methoxybenzo-[d]thiazol-2-yl)amino)ethyl)phenol, and (Z)-1-(4-fluorophenyl)-N-(6-methoxybenzo[d]thiazol-2-yl) methanimine were determined by infusing an aqueous/methanol solution introduce with a T fitting into 30% solvent B from the UPLC for source optimization. The most abundant transitions were chosen for all the three compounds.\nPlasma Sample Preparation. Mouse plasma samples, 50 μl, were transferred to a 1.5 ml centrifuge tube and then 50 μl of IS (4 μg/ml) and 50 μl of calibration standard sample were vortexed for 30 seconds. Acetonitrile (0.1 ml) was added to precipitate the proteins. After being vortexed for 3 minutes, the sample was centrifuged for 10 minutes at 13000 rpm. Supernatant (50 μl) was diluted with 50 μl water and injected onto the column.\nBrain Sample Preparation. Brain tissue (100 mg) was weighed and placed in a centrifuge tube. Methanol (100 μl) was added and the mixture was homogenized for 1 minute before adding 100 μl IS (6 μg/ml) to the homogenized mixture. The sample was then vortexed for 30 seconds before centrifuging for 10 minute at 13000 rpm. The supernatant liquid was diluted 50% with water and injected.\nApplication to Pharmacokinetic Study and Data Analysis. Using the validated LCMS/MS method, blood and brain levels of 4, 8, and 15 were measured in male and female C57BL6 mice (8-10 week-old, weighing approximately 25-30 grams). The mice were housed in a room with controlled temperature (23±3° C.) and moisture level (55±15% relative humidity) and exposed to a controlled 12 hour light/12 hour dark cycle. They were allowed to access to food and water ad libitum. Mice were fasted for 6 hours with free access to water prior to the pharmacokinetic study. To determine the time course of compounds 4, 8, and 15 action in the brain, the plasma pharmacokinetics and BBB penetration capability of the inhibitors were investigated. In these experiments, compounds 4, 8, and 15 were administered to mice by intravenous injection at a dosage of 10 mg/kg. Blood and brain samples were collected from mouse at each time point (2, 5, 10, 30, 60, 120, 240, 360, 720, 1440, and 2880 minutes), a total of 11 time points. For plasma measurements, blood (approximately 500-800 μl) was collected via cardiac-puncture into tubes containing sodium heparin anti-coagulant. Plasma was separated via centrifugation (4° C., 3500 rpm, 10 minutes) and stored in −80° C. freezer. For qualitative confirmations of these compounds in CSF, samples were collected at 2 time points (240 and 1440 min) from five animals at each time point. […]"}, "ABAD": {"target": "ABAD (Homo sapiens (Human), UniProt Q99714)", "sequence (Q99714 whole entry)": "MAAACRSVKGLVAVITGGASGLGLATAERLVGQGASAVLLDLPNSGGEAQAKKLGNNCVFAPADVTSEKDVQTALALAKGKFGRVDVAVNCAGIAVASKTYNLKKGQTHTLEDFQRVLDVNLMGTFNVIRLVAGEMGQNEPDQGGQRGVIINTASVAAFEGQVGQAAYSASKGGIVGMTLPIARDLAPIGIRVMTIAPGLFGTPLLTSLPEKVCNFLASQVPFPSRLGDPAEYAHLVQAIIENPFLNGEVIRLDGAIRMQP", "assay": "Surface plasmon resonance (BIACORE 3000) binding experiment with ABAD", "description": "Binding Experiment with ABAD. The interactions between compounds and ABAD were performed using the dual flow cell BIACORE 3000 instrument. Surface Plasmon Resonance (SPR) studies were performed on a BIACORE 3000 at 25° C. SPR binding experiments with ABAD were performed in phosphate-buffered saline (PBS, pH 7.4, 0.005% surfactant P20) as the running and the sample buffer. […] ABAD was dissolved in PBS buffer (pH 5.0) at a concentration of 10 μg/ml. The protein was immobilized directly and covalently on the hydrophilic carboxymethylated dextran matrix of the CM5 sensor chip (BIACORE) by using the standard primary amine coupling reaction on a CM5 sensor chip according to standard procedures. After the immobilization of the protein, excess activated carboxylic acid groups were quenched with ethanolamine (1 M, pH 8.5).\nSpecial care was taken during injection of samples because of carryover effects. Special washing routines were used to clean the system before injection of new samples. In addition, predipping of needles was performed. The sample flow was 40 μl/minute in experiments performed for the determination of the kinetic and equilibrium constants. Regeneration of the surfaces between subsequent binding experiments was achieved by washing the surface extensively (>>1 hour) with buffer solution. Data analyses were carried out using BIA evaluation software, and the sensor grams were processed by automatic correction for nonspecific bulk refractive index effects. The kinetic analyses of the ligand binding to the protein were performed based on the 1:1 Langmuir binding fit model according to the standard procedures described in the software manual.\nTo perform kinetic analyses of the binding of phosphonate derivatives to ABAD, the BIACORE 3000 instrument (based on surface plasmon resonance [SPR] technology) was used. The 1:1 Langmuir binding fit model was used for determining the equilibrium dissociation constant (KD), and the association (kon) and dissociation (koff) rate constants by using Equations (1) and (2). dR/dt=kon×C×(Rmax−R)−koff×R (1) Where R represents the response unit, C is the concentration of the analyte, and KD=koff/kon (2) The results were evaluated by χ2 analysis."}, "[2]": {"assay": "Solubility in solvents during method development", "assay_type": "physicochemical", "procedure": "Method Development. During the development of a detection method for analytes 4, 8 and 15, multiple solvents were tested to find the optimal mobile phase. […] Acetonitrile was selected for better peak shape and compatibility with serum/brain protein precipitation. Compounds 8 and 15 were chosen as IS, because of their structural similarity. Selected reaction monitoring (SRM) acquisitions were used for sensitivity and extended dynamic range. The cone voltage and collision energy were optimized for 4, 8 and 15 and the IS by continuously infusing a mixture of the two. The optimum cone voltage was 30V."}, "[3]": {"assay": "Stability of standards under temperature and storage conditions", "assay_type": "physicochemical", "conditions": "standards in methanol; 25° C. short-term, −20° C. for twenty days", "procedure": "Stability. The stability of compounds 4, 8, and 15 was evaluated in ACSF, plasma, and brain matrices under various temperature and storage conditions. Stability at room temperature was studied by analyzing samples at 25° C. for 2 and 4 hours and stability at −80° C. was checked for one month. Samples were analyzed after three (−80° C. to 25° C.) freeze-thaw cycles. Stability studies were performed at three concentrations.\nStability The stability of ABAD compounds were determined under different temperature and storage conditions. 4, 8 and 15 standards were dissolved in methanol and were subjected short-term exposure at 25° C. for and 4 hours long-term storage conditions were assessed at −20° C. for twenty days."}, "[4]": {"conditions": "Table 7, 1:1 Langmuir binding fit, read-out: SPR KD"}}, "note": "Where two headings read alike, the source gives them in different places."}
{"molecule": "COC(=O)c1cc([C@H](Nc2nc3ccc(OC)cc3s2)P(=O)(OC)OC)ccc1O", "note": "[Compound 4, Methyl 5-((dimethoxyphosphoryl)((6-methoxybenzo[d]thiazol-2-yl)amino)methyl)-2-hydroxybenzoate]", "values": [{"measurement": "CcO activity, inhibitor alone", "setting": "SK-N-SH cells", "result": "no effect on CcO activity without Aβ"}, {"measurement": "Aβ-mediated decrease of CcO activity", "setting": "SK-N-SH cells", "result": "reversed the Aβ-mediated decrease of CcO activity"}, {"measurement": "AUC(0-inf)", "setting": "[1]; Brain", "result": 0.0751, "unit": "µg·h/mL"}, {"measurement": "Cmax", "setting": "[1]; Brain", "result": 0.0507, "unit": "µg/mL"}, {"measurement": "Tmax", "setting": "[1]; Brain", "result": 1.8, "unit": "min"}, {"measurement": "half-life", "setting": "[1]; Brain", "result": 17.1, "unit": "h"}, {"measurement": "AUC(0-t)", "setting": "[1]; Brain", "result": 0.0665, "unit": "µg·h/mL"}, {"measurement": "AUC(0-inf)", "setting": "[1]; Plasma", "result": 3.03, "unit": "µg·h/mL"}, {"measurement": "Cmax", "setting": "[1]; Plasma", "result": 2.37, "unit": "µg/mL"}, {"measurement": "Tmax", "setting": "[1]; Plasma", "result": 1.8, "unit": "min"}, {"measurement": "half-life", "setting": "[1]; Plasma", "result": 6.2, "unit": "h"}, {"measurement": "AUC(0-t)", "setting": "[1]; Plasma", "result": 3.03, "unit": "µg·h/mL"}, {"measurement": "Kd", "setting": "ABAD; Table 6, read-out: KD", "result": 0.496, "unit": "µM"}, {"measurement": "Kd", "setting": "ABAD; [4]", "result": 0.496, "unit": "µM"}, {"measurement": "solubility in methanol or acetonitrile", "setting": "[2]", "result": "dissolved readily in methanol or acetonitrile"}, {"measurement": "solubility in water", "setting": "[2]", "result": "dissolved partially in water"}, {"measurement": "stability, variability across all samples", "setting": "[3]", "result": "less than 10 % (RSD)"}]}
{"molecule": "COc1ccc2nc(N[C@@H](c3ccc(O)cc3)P(=O)(OC)OC)sc2c1", "note": "(racemic) [Compound 8, Dimethyl ((4-hydroxyphenyl)((6-methoxybenzo[d]thiazol-2-yl)amino)methyl)phosphonate]", "values": [{"measurement": "CcO activity, inhibitor alone", "setting": "SK-N-SH cells", "result": "no effect on CcO activity without Aβ"}, {"measurement": "Aβ-mediated decrease of CcO activity", "setting": "SK-N-SH cells", "result": "reversed the Aβ-mediated decrease of CcO activity"}, {"measurement": "AUC(0-inf)", "setting": "[1]; Brain", "result": 0.0071, "unit": "µg·h/mL"}, {"measurement": "Cmax", "setting": "[1]; Brain", "result": 0.0048, "unit": "µg/mL"}, {"measurement": "half-life", "setting": "[1]; Brain", "result": 8.3, "unit": "h"}, {"measurement": "AUC(0-t)", "setting": "[1]; Brain", "result": 0.0069, "unit": "µg·h/mL"}, {"measurement": "AUC(0-inf)", "setting": "[1]; Plasma", "result": 2.87, "unit": "µg·h/mL"}, {"measurement": "Cmax", "setting": "[1]; Plasma", "result": 2.13, "unit": "µg/mL"}, {"measurement": "half-life", "setting": "[1]; Plasma", "result": 5.5, "unit": "h"}, {"measurement": "AUC(0-t)", "setting": "[1]; Plasma", "result": 2.86, "unit": "µg·h/mL"}, {"measurement": "Kd", "setting": "ABAD; [4]", "result": 0.291, "unit": "µM"}, {"measurement": "solubility in methanol or acetonitrile", "setting": "[2]", "result": "dissolved readily in methanol or acetonitrile"}, {"measurement": "solubility in water", "setting": "[2]", "result": "dissolved partially in water"}, {"measurement": "stability, variability across all samples", "setting": "[3]", "result": "less than 10 % (RSD)"}]}
{"molecule": "COc1ccc2nc(N[C@@H](c3ccc(F)cc3)P(=O)(OC)OC)sc2c1", "note": "[Compound 15, Dimethyl ((4-fluorophenyl)((6-methoxybenzo[d]thiazol-2-yl)amino)methyl)phosphonate]", "values": [{"measurement": "CcO activity, inhibitor alone", "setting": "SK-N-SH cells", "result": "no effect on CcO activity without Aβ"}, {"measurement": "Aβ-mediated decrease of CcO activity", "setting": "SK-N-SH cells", "result": "reversed the Aβ-mediated decrease of CcO activity"}, {"measurement": "AUC(0-inf)", "setting": "[1]; Brain", "result": 0.0654, "unit": "µg·h/mL"}, {"measurement": "Cmax", "setting": "[1]; Brain", "result": 0.0443, "unit": "µg/mL"}, {"measurement": "Tmax", "setting": "[1]; Brain", "result": 1.8, "unit": "min"}, {"measurement": "half-life", "setting": "[1]; Brain", "result": 11.4, "unit": "h"}, {"measurement": "AUC(0-t)", "setting": "[1]; Brain", "result": 0.064, "unit": "µg·h/mL"}, {"measurement": "AUC(0-inf)", "setting": "[1]; Plasma", "result": 2.99, "unit": "µg·h/mL"}, {"measurement": "Cmax", "setting": "[1]; Plasma", "result": 1.98, "unit": "µg/mL"}, {"measurement": "Tmax", "setting": "[1]; Plasma", "result": 1.8, "unit": "min"}, {"measurement": "half-life", "setting": "[1]; Plasma", "result": 6.1, "unit": "h"}, {"measurement": "AUC(0-t)", "setting": "[1]; Plasma", "result": 2.98, "unit": "µg·h/mL"}, {"measurement": "Kd", "setting": "ABAD; [4]", "result": 0.264, "unit": "µM"}, {"measurement": "solubility in methanol or acetonitrile", "setting": "[2]", "result": "dissolved readily in methanol or acetonitrile"}, {"measurement": "solubility in water", "setting": "[2]", "result": "dissolved partially in water"}, {"measurement": "stability, variability across all samples", "setting": "[3]", "result": "less than 10 % (RSD)"}]}
